Legend:
male B6 mice = assay: Aging-induced deterioration of male sperm quality in B6 mice; format: in vivo, mouse; conditions: 18-month-old male B6 mice, 15 months treatment; for epididymal sperm count / sperm vitality (eosin-nigrosin staining) / total sperm motility: 8 mg/kg/d in drinking water
Description: Sperm count, and motility were determined by microscopic semen analysis of male B6 mice at an age of 3 months and 18 months similarly as described (Komori et al., Reprod. Med. Biol. 5, 195-200, 2006). Sperm cells were isolated from male B6 mice from the epididymis as described (Esposito et al., Proc. Nat. Acad. Sci. U.S.A. 101, 2993-2998, 2004). Sperm concentration was determined with a Neubauer hemocytometer. Percentage of sperm motility was determined with a 10 microl sample loaded onto a clean slide glass and covered with a coverslip. Sperm motility was evaluated under positive phase-contrast microscopy at a total magnification of ×400, and graded according to the WHO criteria (Komori et al., Reprod. Med. Biol. 5, 195-200, 2006), i.e. percentage of motile sperm cells was counted, and the percentage of progressive and not progressive sperm motility was determined. At least 300 spermatozoa were evaluated. Spermatozoa viability was determined by eosin-nigrosine staining technique. A drop of spermatozoa suspension in PBS was mixed with one drop of aqueous eosin Y solution (1%), and incubated for 15 s. Thereafter, two drops of 10% aqueous nigrosine solution were added and mixed. An aliquot of this mixture was transferred to a glass slide, a thin smear was made, and air dried. Stained spermatozoa were examined under a light microscope, and the percentage of live sperm cells was determined. Live sperm cells appear white whereas dead sperm cells are coloured pink. Treatment of male B6 mice with Compound-1 and Compound-1F (8 mg/kg/d in drinking water) was started at an age of 3 months and continued until the end of the observation period at an age of 18 months.

Mpp1 = assay: Immunoblot of Mpp1 protein content in PBMN cells of aged B6 mice; format: in vivo, mouse; conditions: 18-month-old B6 mice treated for 15 months in drinking water
Description: For protein separation by SDS-PAGE (Laemmli system), the protein pellet can be dissolved in SDS-PAGE sample buffer supplemented with SDS. As an alternative, sample buffer for native gel electrophoresis can be added. According to the original protocol, the SDS-PAGE Laemmli sample buffer contains 2% SDS, 0.1 M DTT (or 5% mercaptoethanol). To improve disaggregation of aggregated proteins, the buffer can be supplemented without or with urea ranging from about 0 M-8 M, preferably about 6 M urea and incubated for about 10 min to 24 h, preferably about 90 min at room temperature. Proteins can be stored frozen (about […]) at a concentration ranging from about 0.01-100 mg/ml, preferably about 0.5 mg-1 mg/ml, for further use. It may be further desirable to dilute the solubilisate, for example, diluting the supernatant solubilisate by 1:1-1:20, preferably 1:5, in a suitable buffer as described above (preferably supplemented with protease inhibitors). Before immunoblot detection of proteins, proteins are separated. For separation of proteins, one- or two-dimensional SDS-PAGE can be applied. […]

Row | SMILES | decrease in progressive sperm motility (male B6 mice) | epididymal sperm count (male B6 mice) | sperm vitality (eosin-nigrosin staining) (male B6 mice) | total sperm motility (male B6 mice) | Mpp1 protein content in PBMN cells (Mpp1)
1 | O=C(C1=C(O)C(c2ccc(F)cc2)N(c2ccc3c(c2)OCO3)C1=O)C1CC1 (stereo not shown) [Compound-1F, 1-(1,3-Benzodioxol-5-yl)-4-(cyclopropanecarbonyl)-2-(4-fluorophenyl)-3-hydroxy-2H-pyrrol-5-one] | largely prevented | retarded the aging-induced decrease in epididymal sperm count | maintained sperm vitality | improved total sperm motility | significantly decreased the content of the senescence marker, Mpp1
2 | O=C(C1=C(O)C(c2ccccc2)N(c2ccc3c(c2)OCO3)C1=O)C1CC1 (stereo not shown) [Compound-1, 1-(1,3-benzodioxol-5-yl)-4-(cyclopropane-carbonyl)-3-hydroxy-2-phenyl-2H-pyrrol-5-one] | largely prevented | retarded the aging-induced decrease in epididymal sperm count | maintained sperm vitality | improved total sperm motility | significantly decreased the content of the senescence marker, Mpp1
